Experimental data published in US20220274947A1, “NOVEL HETEROARYL-TRIAZOLE COMPOUNDS AS PESTICIDES” (Bayer Aktiengesellschaft, priority 2019, published 2022).

How the values were obtained:
Format in all cases: in vivo
Rhipicephalus microplus [1] = assay: Rhipicephalus (Boophilus) microplus in-vitro contact test, larval cattle tick, strain Parkhurst (BOOPMI Cont); settings: application rate 5 μg/cm^2 (=500 g/ha), tick larvae, after 48 hours, read-out: activity (efficacy: 100% means all larvae are dead or moribund)
Method in brief: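 Acetone solutions dried onto glass tube walls (900 ppm giving 5 μg/cm^2); 20-50 pyrethroid-resistant Parkhurst larvae added per tube and held 48 h at 27° C., 85% relative humidity. Efficacy scored by negative geotaxis as % dead or moribund larvae.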

Ctenocephalides felis [2] = assay: Ctenocephalides felis in-vitro contact test, adult cat flea (CTECFE Cont); settings: application rate 5 μg/cm^2 (=500 g/ha), adult cat fleas, after 48 hours, read-out: activity (efficacy: 100% means all fleas are dead or moribund)
Method in brief: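 Acetone solutions coated on glass tube inner walls (900 ppm giving 5 μg/cm^2), then 5-10 adult fleas added and held 48 h at room temperature. Fleas unable to escape a 45-50° C. heating plate within 5 min scored dead or moribund; efficacy = % dead/moribund.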

Rhipicephalus sanguineus = Rhipicephalus sanguineus in-vitro contact test, adult brown dog ticks (RHIPSA Cont); settings: 48 h, after 48 hours, read-out: activity (efficacy: 100% means all ticks are dead or moribund); for pest or weed control at 5 µg/cm2, 500 g/ha: application rate 5 μg/cm^2 (=500 g/ha); for pest or weed control at 1 µg/cm2, 100 g/ha: application rate 1 μg/cm^2 (=100 g/ha)
Method in brief: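 Mortality of adult R. sanguineus was judged 48 h after contact with acetone-applied residues on glass tube walls. Ticks that stayed immotile or moved without coordination when heated to 45–50 °C (max 5 min) counted as dead or moribund.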

Diabrotica balteata = Diabrotica balteata spray test; settings: 168 h, wheat seeds, larvae, after 7 days, read-out: activity (efficacy: 100% means all seedlings have grown up like in the untreated, uninfected control); for pest or weed control at 32 µg/disc, 100 g/ha: application rate 100 g/ha (=32 μg/well); for pest or weed control at 160 µg/disc, 500 g/ha: application rate 500 g/ha (=160 μg/well)
Method in brief: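 Wheat seedlings, germinated 1 day on agar, were sprayed with compound in acetone/DMF diluted in water containing emulsifier, then infested with 10-20 Diabrotica balteata larvae. After 7 days efficacy in % was scored: 100% means seedlings grew like the untreated, uninfected control; 0% means none grew.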

Myzus persicae [3] = assay: Myzus persicae oral test; settings: 120 h, read-out: activity (mortality)
Method in brief: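 Percent mortality was recorded at day 5, where 0% means no aphids killed. Compound prepared from an acetone concentrate diluted in water and combined with IPL41 medium containing sugar was offered to mixed-stage green peach aphids, which sucked it through a parafilm seal.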

Myzus persicae [4] = assay: Myzus persicae spray test; settings: in Brassica rapa, foliar, 120 h; for mortality at 100 g/ha: read-out: activity (mortality), application rate 100 g/ha, spray, Chinese cabbage leaf disks, after 5 days; for mortality at 500 g/ha: read-out: activity (mortality), application rate 500 g/ha, spray, Chinese cabbage leaf disks, after 5 days
Protocol: Myzus persicae—Spray Test Solvent: 78.0 parts by weight acetone • 1.5 parts by weight dimethylformamide Emulsifier: alkylarylpolyglycol ether To produce a suitable preparation of active compound, 1 part by weight of active compound is mixed with the stated amount of solvents and is diluted with water, containing an emulsifier concentration of 1000 ppm, to the desired concentration. Further test concentrations are prepared by dilution with emulsifier containing water.
Chinese cabbage (Brassica pekinensis) leaf disks infected with all instars of the green peach aphid (Myzus persicae), are sprayed with a preparation of the active ingredient of the desired concentration.
After 5 days mortality in % is determined. 100% means all aphids have been killed and 0% means none of the aphids have been killed.

Nezara viridula = Nezara viridula spray test; settings: in Hordeum vulgare, 96 h, barley plants, larvae, after 4 days; for mortality at 100 g/ha: application rate 100 g/ha; for mortality at 500 g/ha: application rate 500 g/ha
Protocol: Nezara viridula—Spray Test Solvent: 78.0 parts by weight of acetone • • 1.5 parts by weight of dimethylformamide Emulsifier: alkylarylpolyglycol ether
To produce a suitable preparation of active compound, 1 part by weight of active compound is mixed with the stated amount of solvent, and the concentrate is diluted with water, containing an emulsifier concentration of 1000 ppm, to the desired concentration. Further test concentrations are prepared by dilution with emulsifier containing water.
Barley plants (Hordeum vulgare) infested with larvae of the southern green stink bug (Nezara viridula) are sprayed with a test solution containing the desired concentration of the active ingredient.
After 4 days mortality in % is determined. 100% means all the stink bugs have been killed; 0% means none of the stink bugs have been killed.

Spodoptera frugiperda = Spodoptera frugiperda spray test; settings: in Zea mays, 168 h, read-out: activity (mortality)
Method in brief: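 Maize leaf sections were sprayed with compound formulated in acetone/DMF and diluted in water containing 1000 ppm emulsifier. Dried leaves were infested with fall armyworm larvae, and percent mortality was scored after 7 days.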

Rhipicephalus microplus [5] = assay: Rhipicephalus (Boophilus) microplus injection test (BOOPMI Inj); settings: 168 h, injection into adult engorged female ticks, egg deposition after 7 days, read-out: activity (efficacy: 100% means all eggs are infertile); for pest or weed control at 0.004 mg: application rate 4 μg/tick; for pest or weed control at 0.02 mg: application rate 20 μg/tick
Method in brief: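 Five engorged adult female R. microplus ticks injected into the abdomen with 1 μL of compound diluted in DMSO, then kept in a climate chamber. Fertile egg deposition checked after 7 days; eggs without visible fertility held until hatching at about 42 days. Efficacy: 100% = all eggs infertile, 0% = all fertile.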

[6] = test system: Aedes aegypti strain MONHEIM; assay: Aedes aegypti test (AEDSAE surface treatment & contact assay); settings: surface concentration 20 mg/m^2, glazed tile, exposure 30 minutes, 24 hours after contact, read-out: efficacy (mortality)
Method in brief: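 Compound dissolved in acetone (2 mg/ml) with 2000 ppm rapeseed oil methyl ester, pipetted onto glazed tile and dried. Adult mosquitoes exposed on the surface for 30 min; percent mortality scored 24 h after contact.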

[7] = test system: Musca domestica strain WHO—N; assay: Musca domestica test (MUSCDO surface treatment & contact assay); settings: exposure 30 minutes, 24 hours after contact, read-out: efficacy (mortality)
Method in brief: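 Compound dissolved in acetone (2 mg/ml) with 2000 ppm rapeseed oil methyl ester and pipetted onto glazed tile; after acetone evaporation, adult flies exposed to dried surface for 30 minutes. Mortality (%) scored 24 hours after contact.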

Ctenocephalides felis [8] = assay: Ctenocephalides felis oral test (CTECFE Oral); settings: 48 h, read-out: activity (mortality)
Method in brief: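 About 20 unfed adult cat fleas fed through parafilm on cattle blood containing compound (DMSO concentrate diluted in blood to the desired concentration). Blood held at 37 °C, fleas at room temperature. Mortality (%) scored after 2 days.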

Structure (SMILES)	pest or weed control at 5 µg/cm2 (Rhipicephalus microplus [1])	pest or weed control at 5 µg/cm2 (Ctenocephalides felis [2])	pest or weed control at 5 µg/cm2, 500 g/ha (Rhipicephalus sanguineus)	pest or weed control at 32 µg/disc, 100 g/ha (Diabrotica balteata)	mortality at 0.8 ppm (Myzus persicae [3])	mortality at 4 ppm (Myzus persicae [3])	mortality at 100 g/ha (Myzus persicae [4])	mortality at 100 g/ha (Nezara viridula)	mortality at 500 g/ha (Nezara viridula)	mortality at 100 g/ha (Spodoptera frugiperda)	pest or weed control at 0.004 mg (Rhipicephalus microplus [5])	pest or weed control at 0.02 mg (Rhipicephalus microplus [5])	pest or weed control at 1 µg/cm2, 100 g/ha (Rhipicephalus sanguineus)	pest or weed control at 160 µg/disc, 500 g/ha (Diabrotica balteata)	mortality at 500 g/ha (Myzus persicae [4])	mortality at 500 g/ha (Spodoptera frugiperda)	mortality at 20 mg/m2 [6]	mortality at 4 mg/m2 ([7]; surface concentration 4 mg/m^2, glazed tile)	mortality at 20 mg/m2 ([7]; surface concentration 20 mg/m^2, glazed tile)	mortality at 100 ppm (Ctenocephalides felis [8])
COc1nc([C@H](C)NC(=O)c2cc(OC(F)F)cc(OC(F)F)c2)n(-c2ccc(C#N)cn2)n1 [I-64]	100%	90%	80%	100%	100%	100%	90%	90%	100%	100%										
C[C@H](NC(=O)c1cc(C(F)(F)F)cc(C(F)(F)F)c1)c1ncnn1-c1ncc(I)s1 [II-39]	100%		100%	100%					90%	100%	100%	100%	100%	100%	100%	100%	80 to 100%	80 to 100%	80 to 100%	
CC(C)CN(C)C(=O)c1ccc(-n2ncnc2[C@H](C)NC(=O)c2cc(Cl)cc(C(F)(F)F)c2)nc1 [II-71]	100%	100%	100%	100%		90%	90%		100%		100%	100%		100%	90%	100%				
Cc1nc([C@H](C)NC(=O)c2cc(C(F)(F)F)cc(C(F)(F)F)c2)n(-c2ccc(C(=O)N(C)CC3CC3)cn2)n1 [II-91]	100%	100%	100%	100%	100%	100%	100%	100%		100%	100%		100%							100%
Cc1nc([C@H](C)NC(=O)c2cc(C(F)(F)F)cc(C(F)(F)F)c2)n(-c2ccc(C(=O)N(C)C(C)C)cn2)n1 [II-92]	100%	100%	100%			100%	90%	90%		100%	100%		100%							
Cc1nc([C@H](C)NC(=O)c2cc(C(F)(F)F)cc(C(F)(F)F)c2)n(-c2ccc(C(=O)N(C)CC(F)(F)F)cn2)n1 [II-93]	100%	90%	100%	100%		100%	90%	100%		100%	100%		100%							90%
Cc1nc([C@H](C)NC(=O)c2cc(C(F)(F)F)cc(C(F)(F)F)c2)n(-c2ccc(C(=O)N(C)CC(C)C)cn2)n1 [II-94]	100%	100%	100%	100%		100%	90%	100%			100%		100%							90%
Cc1nc([C@H](C)NC(=O)c2cc(C(F)(F)F)cc(C(F)(F)F)c2)n(-c2ccc(C(=O)N(C)C)cn2)n1 [II-100]	100%	100%	100%		100%	100%	100%	100%		100%	100%		100%							
CCSc1cc(C#N)cc(C(=O)N[C@@H](C)c2ncnn2-c2ccc(C#N)cn2)c1 [II-109]	100%	100%	100%	100%	90%	100%	90%	100%			100%		100%							
Cc1nc([C@H](C)NC(=O)c2cc(C(F)F)cc(C(F)F)c2)n(-c2ccc(C#N)cn2)n1 [II-114]	100%	100%	100%	100%	100%	100%	90%	100%		83%			100%							
Cc1nc([C@H](C)NC(=O)c2cc(OC(F)F)cc(OC(F)F)c2)n(-c2ccc(C#N)cn2)n1 [II-115]	100%	90%	100%	100%	100%	100%	90%	100%		100%										
